Experimental data reported in PubChem BioAssay AID330 (DTP/NCI, 2004).
Where “and” joins values, the source holds several entries; their conditions need not be identical. Equal entries are not always repeated. Inconclusive results and toxic doses are left out.

Tested on: P388 leukemia ip, CD2F1 mice, survival T/C
Experiment: NCI In Vivo Anticancer Drug Screen. Data for tumor model P388 Leukemia (intraperitoneal) in CD2F1 (CDF1) mice
Conditions: endpoint: median survival time, higher = longer survival
Method in brief: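 Mice carrying the transplanted tumor received test compound or vehicle. Survival was recorded in each group, and the value is the treated-group measurement divided by that of the vehicle-treated control group.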

[1] = dose: 6.25 mg/kg/injection, schedule: Q01DX009 (ip), vehicle: saline with Tween-80
[2] = dose: 12.5 mg/kg/injection, schedule: Q01DX009 (ip), vehicle: saline with Tween-80
[3] = dose: 25.0 mg/kg/injection, schedule: Q01DX009 (ip), vehicle: saline with Tween-80
[4] = dose: 50.0 mg/kg/injection, schedule: Q01DX009 (ip), vehicle: saline with Tween-80
[5] = dose: 200.0 mg/kg/injection, schedule: Q01DX009 (ip), vehicle: saline with Tween-80
[6] = dose: 60.0 mg/kg/injection, schedule: Q01DX005 (ip), vehicle: saline with Tween-80
[7] = dose: 120.0 mg/kg/injection, schedule: Q01DX005 (ip), vehicle: saline with Tween-80
[8] = dose: 100.0 mg/kg/injection, schedule: Q01DX009 (ip), vehicle: saline
[9] = dose: 50.0 mg/kg/injection, schedule: Q01DX009 (ip), vehicle: Klucel (hydroxypropylcellulose) (HPC)
[10] = dose: 100.0 mg/kg/injection, schedule: Q01DX009 (ip), vehicle: Klucel (hydroxypropylcellulose) (HPC)
[11] = dose: 200.0 mg/kg/injection, schedule: Q01DX009 (ip), vehicle: Klucel (hydroxypropylcellulose) (HPC)
[12] = dose: 50.0 mg/kg/injection, schedule: Q01DX005 (ip), vehicle: Klucel (hydroxypropylcellulose) (HPC)
[13] = dose: 100.0 mg/kg/injection, schedule: Q01DX005 (ip), vehicle: Klucel (hydroxypropylcellulose) (HPC)
[14] = dose: 200.0 mg/kg/injection, schedule: Q01DX005 (ip), vehicle: Klucel (hydroxypropylcellulose) (HPC)
[15] = dose: 100.0 mg/kg/injection, schedule: Q01DX009 (ip), vehicle: saline with Tween-80
[16] = dose: 25.0 mg/kg/injection, schedule: Q01DX005 (ip), vehicle: saline with Tween-80
[17] = dose: 50.0 mg/kg/injection, schedule: Q01DX005 (ip), vehicle: saline with Tween-80
[18] = dose: 100.0 mg/kg/injection, schedule: Q01DX005 (ip), vehicle: saline with Tween-80

O=C(Nc1cccc2cccnc12)C1=C(Nc2cccc3cccnc23)CCC1
T/C [1]: 107 % of control
T/C [2]: 100 % of control
T/C [3]: 98 % of control
T/C [4]: 92 % of control
T/C [5]: 98 % of control

CCN(CC)C(=O)c1c(C(=O)OC)c(C)n(NC(=O)c2cccc(C)c2)c1C
T/C [6]: 90 % of control
T/C [7]: 87 % of control

Nc1nc(N)c2cc(Sc3ccc(Cl)cc3)ccc2n1
T/C [3]: 118 % of control
T/C [5]: 86 % of control

Oc1ccc(CCl)c2cccnc12
T/C (dose: 12.5 mg/kg/injection, schedule: Q01DX009 (ip), vehicle: saline): 98 % of control
T/C (dose: 25.0 mg/kg/injection, schedule: Q01DX009 (ip), vehicle: saline): 101 % of control
T/C [8]: 150 % of control

N#CC1C(=O)NC(=S)NC1c1ccc(Cl)c(Cl)c1 (stereo not given)
T/C [9]: 100 % of control
T/C [10]: 95 % of control
T/C [11]: 95 % of control

C=CS(=O)(=O)OCCCl
T/C [1]: 108 % of control and 109 % of control and 111 % of control
T/C (dose: 18.75 mg/kg/injection, schedule: Q01DX009 (ip), vehicle: saline with Tween-80): 117 % of control

COc1ccc(C2Cc3cc(OC)c(OC)cc3C(c3ccc(OC)c(OC)c3)N2)cc1OC (stereo not given)
T/C [6]: 97 % of control
T/C [7]: 88 % of control
T/C (dose: 240.0 mg/kg/injection, schedule: Q01DX005 (ip), vehicle: saline with Tween-80): 89 % of control

COc1ccc2c(c1OC)CN1CCc3cc4c(cc3C1C2)OCO4 (stereo not given)
T/C [12]: 105 % of control and 91 % of control
T/C [13]: 100 % of control and 94 % of control
T/C [14]: 96 % of control and 94 % of control

C/C=C1\CN2C3CC1C1(CN4c5c(OC)cc(OC)c(OC)c5C56CC7C(COC45O1)C1CC6N7C/C1=C/COC)C2CC31C(=O)Nc2c(OC)cc(OC)c(OC)c21 (stereo not given)
T/C (dose: 1.5 mg/kg/injection, schedule: Q01DX005 (ip), vehicle: Klucel (hydroxypropylcellulose) (HPC)): 97 % of control
T/C (dose: 3.0 mg/kg/injection, schedule: Q01DX005 (ip), vehicle: Klucel (hydroxypropylcellulose) (HPC)): 97 % of control
T/C (dose: 6.0 mg/kg/injection, schedule: Q01DX005 (ip), vehicle: Klucel (hydroxypropylcellulose) (HPC)): 108 % of control
T/C (dose: 12.0 mg/kg/injection, schedule: Q01DX005 (ip), vehicle: Klucel (hydroxypropylcellulose) (HPC)): 96 % of control

CN1C(=O)C(Br)(Br)CC1c1cccnc1 (stereo not given)
T/C (dose: 60.0 mg/kg/injection, schedule: Q01DX005 (ip), vehicle: Klucel (hydroxypropylcellulose) (HPC)): 101 % of control
T/C (dose: 120.0 mg/kg/injection, schedule: Q01DX005 (ip), vehicle: Klucel (hydroxypropylcellulose) (HPC)): 109 % of control
T/C (dose: 240.0 mg/kg/injection, schedule: Q01DX005 (ip), vehicle: Klucel (hydroxypropylcellulose) (HPC)): 100 % of control

O=C1OC(c2ccccc2)(c2ccccc2)c2cc3c(cc21)C(=O)OC3(c1ccccc1)c1ccccc1
T/C (dose: 50.0 mg/kg/injection, schedule: Q04DX002 (ip), vehicle: saline): 102 % of control
T/C (dose: 100.0 mg/kg/injection, schedule: Q04DX002 (ip), vehicle: saline): 100 % of control
T/C (dose: 200.0 mg/kg/injection, schedule: Q04DX002 (ip), vehicle: saline): 98 % of control

CCn1nnnc1Nc1ccccc1
T/C [9]: 120 % of control
T/C [10]: 123 % of control
T/C [11]: 113 % of control

CC(=C\C1=CC(C)(C)CCC1(C)C)/C=C(C)/C=C/C=[N+](\[O-])C1C(C2COC(C)(C)O2)OC2OC(C)(C)OC21 (stereo not given)
T/C (dose: 12.5 mg/kg/injection, schedule: Q01DX005 (ip), vehicle: DMSO): 103 % of control
T/C (dose: 25.0 mg/kg/injection, schedule: Q01DX005 (ip), vehicle: DMSO): 119 % of control
T/C (dose: 50.0 mg/kg/injection, schedule: Q01DX005 (ip), vehicle: DMSO): 100 % of control and 113 % of control
T/C (dose: 100.0 mg/kg/injection, schedule: Q01DX005 (ip), vehicle: DMSO): 106 % of control
T/C (dose: 200.0 mg/kg/injection, schedule: Q01DX005 (ip), vehicle: DMSO): 103 % of control

CS/C(=C/c1ccc2ccccc2[n+]1C)N1CCCCC1
T/C (dose: 0.78 mg/kg/injection, schedule: Q01DX005 (ip), vehicle: saline with Tween-80): 109 % of control
T/C (dose: 1.56 mg/kg/injection, schedule: Q01DX005 (ip), vehicle: saline with Tween-80): 116 % of control

Cc1cc(Nc2nnc(-c3cccnc3Oc3ccccc3)s2)ccc1Br
T/C [2]: 88 % of control
T/C [3]: 92 % of control
T/C [4]: 105 % of control and 91 % of control
T/C [15]: 94 % of control
T/C [5]: 103 % of control

N#CCc1ccc(N(CCO)CCO)cc1
T/C (dose: 12.5 mg/kg/injection, schedule: Q01DX005 (ip), vehicle: saline with Tween-80): 102 % of control
T/C [16]: 101 % of control
T/C [17]: 101 % of control and 104 % of control

CCCCC([Se])=NCCC(C)C
T/C (dose: 6.25 mg/kg/injection, schedule: Q01DX009 (ip), vehicle: Klucel (hydroxypropylcellulose) (HPC)): 105 % of control
T/C (dose: 12.5 mg/kg/injection, schedule: Q01DX009 (ip), vehicle: Klucel (hydroxypropylcellulose) (HPC)): 108 % of control
T/C (dose: 25.0 mg/kg/injection, schedule: Q01DX009 (ip), vehicle: Klucel (hydroxypropylcellulose) (HPC)): 93 % of control

C=CC(=O)N1CCCC1C(=O)O (stereo not given)
T/C (dose: 50.0 mg/kg/injection, schedule: Q01DX009 (ip), vehicle: saline): 100 % of control
T/C [8]: 109 % of control
T/C (dose: 200.0 mg/kg/injection, schedule: Q01DX009 (ip), vehicle: saline): 100 % of control

CC(=O)c1c(OCC(O)CNC(C)C)ccc2c(C)cc(=O)oc12 (stereo not given)
T/C [17]: 100 % of control
T/C [18]: 92 % of control

O=C1Nc2ccccc2S/C1=C\c1cccc(C(F)(F)F)c1
T/C [4]: 94 % of control
T/C [15]: 100 % of control
T/C [5]: 105 % of control

COC(=O)C(Cc1ccccc1)NC(=O)C(Cc1c[nH]c2ccccc12)NC(=O)OC(C)(C)C (stereo not given)
T/C [9]: 95 % of control
T/C [10]: 87 % of control
T/C [11]: 108 % of control

CCN(CC)c1csc2c3ccccc3nc(C)[n+]12
T/C (dose: 100.0 mg/kg/injection, schedule: Q04DX003 (ip), vehicle: saline + Tween-80 + alcohol): 104 % of control
T/C (dose: 200.0 mg/kg/injection, schedule: Q04DX003 (ip), vehicle: saline + Tween-80 + alcohol): 94 % of control
T/C (dose: 400.0 mg/kg/injection, schedule: Q04DX003 (ip), vehicle: saline + Tween-80 + alcohol): 105 % of control

CCSC(CCC(NC(C)=O)C(=O)O)SCC (stereo not given)
T/C [12]: 98 % of control
T/C [13]: 99 % of control
T/C [14]: 91 % of control

O=C(NC(Cc1ccc(F)cc1)C(=O)O)c1ccccc1 (stereo not given)
T/C (dose: 25.0 mg/kg/injection, schedule: Q01DX009 (ip), vehicle: other): 113 % of control
T/C (dose: 50.0 mg/kg/injection, schedule: Q01DX009 (ip), vehicle: other): 115 % of control
T/C (dose: 100.0 mg/kg/injection, schedule: Q01DX009 (ip), vehicle: other): 110 % of control

O=C(Nc1cccc([N+](=O)[O-])c1)C1C(=O)N(c2cccc([N+](=O)[O-])c2)C(=O)/C1=N/O (stereo not given)
T/C [17]: 99 % of control
T/C [18]: 95 % of control
T/C (dose: 200.0 mg/kg/injection, schedule: Q01DX005 (ip), vehicle: saline with Tween-80): 100 % of control

CC1(C)CC(N)=CC(=S)N1
T/C [2]: 92 % of control
T/C [3]: 97 % of control
T/C [4]: 101 % of control

Cc1ccc(S(=O)(=O)/N=S(\C)CC(C)Cl)cc1 (stereo not given)
T/C [9]: 100 % of control
T/C [10]: 105 % of control
T/C [11]: 105 % of control

CCOC(=O)c1ccc(NCc2ccc(CNc3ccc(C(=O)OCC)cc3)cc2)cc1
T/C [1]: 105 % of control
T/C [2]: 103 % of control
T/C [3]: 94 % of control
T/C [4]: 89 % of control
T/C [15]: 89 % of control

CC(C)(C)C1CCC2(CC1)OCC1CCCN12 (stereo not given)
T/C [16]: 88 % of control
T/C [17]: 88 % of control
T/C [18]: 95 % of control

O=C1C=C2CCC3=CC(=O)C(=CC3=O)CCC(=C1)C2=O
T/C (dose: 100.0 mg/kg/injection, schedule: Q04DX002 (ip), vehicle: Klucel (hydroxypropylcellulose) (HPC)): 97 % of control
T/C (dose: 200.0 mg/kg/injection, schedule: Q04DX002 (ip), vehicle: Klucel (hydroxypropylcellulose) (HPC)): 97 % of control

CN1CCCC2c3ccccc3CCC21 (stereo not given)
T/C (dose: 12.5 mg/kg/injection, schedule: Q04DX003 (ip), vehicle: Klucel (hydroxypropylcellulose) (HPC)): 104 % of control
T/C (dose: 25.0 mg/kg/injection, schedule: Q04DX003 (ip), vehicle: Klucel (hydroxypropylcellulose) (HPC)): 101 % of control
